Experimental data as given in ChEMBL document CHEMBL2401681 (Bioorg Med Chem Lett, 2013).

Tests used:
[1] = target: T1, Estrogen receptor beta (Homo sapiens, UniProt Q92731); assay: Antagonist activity at human Gal4-ERbeta assessed as inhibition of 17beta-estradiol-induced effect by reporter gene assay
[2] = target: T1, Estrogen receptor beta; assay: Agonist activity at human Gal4-ERbeta by reporter gene assay
[3] = target: T2, Estrogen receptor (Homo sapiens, UniProt P03372); assay: Antagonist activity at human Gal4-ERalpha assessed as inhibition of 17beta-estradiol-induced effect by reporter gene assay
T2 sequence (P03372 whole entry): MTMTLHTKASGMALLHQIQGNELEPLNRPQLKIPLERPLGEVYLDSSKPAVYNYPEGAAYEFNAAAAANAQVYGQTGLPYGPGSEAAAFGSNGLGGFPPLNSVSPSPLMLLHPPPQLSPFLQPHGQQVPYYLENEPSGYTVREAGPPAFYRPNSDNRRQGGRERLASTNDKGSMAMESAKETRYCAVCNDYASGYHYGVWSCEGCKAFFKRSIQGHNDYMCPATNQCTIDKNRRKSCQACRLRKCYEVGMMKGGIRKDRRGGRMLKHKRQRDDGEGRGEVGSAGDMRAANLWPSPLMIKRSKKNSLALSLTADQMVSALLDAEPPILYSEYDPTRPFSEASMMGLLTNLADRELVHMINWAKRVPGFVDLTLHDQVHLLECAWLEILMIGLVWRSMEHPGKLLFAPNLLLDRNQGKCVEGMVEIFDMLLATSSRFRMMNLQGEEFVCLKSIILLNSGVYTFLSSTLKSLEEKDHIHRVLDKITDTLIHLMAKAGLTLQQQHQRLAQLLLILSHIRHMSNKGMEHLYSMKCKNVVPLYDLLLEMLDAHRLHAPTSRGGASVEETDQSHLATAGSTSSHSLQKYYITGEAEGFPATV

[4] = target: T2, Estrogen receptor; assay: Agonist activity at human Gal4-ERalpha by reporter gene assay
[5] = target: T3, Estrogen receptor (Homo sapiens) (UniProt P03372); assay: Agonist activity at human Gal4-ERalpha at 10 uM by reporter gene assay relative to 17beta-estradiol
T3 sequence (whole entry): T2 sequence (P03372 whole entry)

[6] = target: T1, Estrogen receptor beta; conditions: at 3 µM
Description: Antagonist activity at human Gal4-ERbeta assessed as inhibition of 17beta-estradiol-induced effect at 3 uM by reporter gene assay

[7] = target: T3, Estrogen receptor (Homo sapiens); conditions: at 3 µM
Description: Antagonist activity at human Gal4-ERalpha assessed as inhibition of 17beta-estradiol-induced effect at 3 uM by reporter gene assay

[8] = target: T4, Androgen receptor (Homo sapiens, UniProt P10275); assay: Antagonist activity at human pSG5-AR assessed as inhibition of dihydrotestosterone-induced effect by reporter gene assay
T4 sequence (P10275 whole entry): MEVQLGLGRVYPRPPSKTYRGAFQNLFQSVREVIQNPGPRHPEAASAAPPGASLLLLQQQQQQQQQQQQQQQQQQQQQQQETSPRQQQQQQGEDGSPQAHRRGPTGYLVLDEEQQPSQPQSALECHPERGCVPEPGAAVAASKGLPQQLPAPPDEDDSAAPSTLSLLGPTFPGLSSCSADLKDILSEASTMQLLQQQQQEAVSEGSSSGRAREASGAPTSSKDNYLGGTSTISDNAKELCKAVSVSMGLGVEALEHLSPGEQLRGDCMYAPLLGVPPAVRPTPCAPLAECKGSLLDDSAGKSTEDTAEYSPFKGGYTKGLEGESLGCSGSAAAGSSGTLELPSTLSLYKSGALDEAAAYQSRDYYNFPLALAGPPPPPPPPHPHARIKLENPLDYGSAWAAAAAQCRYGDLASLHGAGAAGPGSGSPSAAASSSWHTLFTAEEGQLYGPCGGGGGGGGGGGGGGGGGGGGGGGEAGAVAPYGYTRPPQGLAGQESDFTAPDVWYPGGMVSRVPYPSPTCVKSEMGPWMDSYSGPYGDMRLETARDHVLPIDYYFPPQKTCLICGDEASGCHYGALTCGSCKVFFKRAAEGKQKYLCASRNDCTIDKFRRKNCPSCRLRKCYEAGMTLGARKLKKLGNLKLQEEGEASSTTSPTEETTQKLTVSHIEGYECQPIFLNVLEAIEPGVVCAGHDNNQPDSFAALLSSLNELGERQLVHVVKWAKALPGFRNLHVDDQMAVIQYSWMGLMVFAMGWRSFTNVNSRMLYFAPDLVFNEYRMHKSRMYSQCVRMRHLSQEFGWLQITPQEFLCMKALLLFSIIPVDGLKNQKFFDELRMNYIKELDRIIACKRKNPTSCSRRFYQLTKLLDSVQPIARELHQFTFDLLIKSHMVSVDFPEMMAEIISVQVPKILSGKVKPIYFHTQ

T1 sequence (Q92731 whole entry, the tested form may be a part): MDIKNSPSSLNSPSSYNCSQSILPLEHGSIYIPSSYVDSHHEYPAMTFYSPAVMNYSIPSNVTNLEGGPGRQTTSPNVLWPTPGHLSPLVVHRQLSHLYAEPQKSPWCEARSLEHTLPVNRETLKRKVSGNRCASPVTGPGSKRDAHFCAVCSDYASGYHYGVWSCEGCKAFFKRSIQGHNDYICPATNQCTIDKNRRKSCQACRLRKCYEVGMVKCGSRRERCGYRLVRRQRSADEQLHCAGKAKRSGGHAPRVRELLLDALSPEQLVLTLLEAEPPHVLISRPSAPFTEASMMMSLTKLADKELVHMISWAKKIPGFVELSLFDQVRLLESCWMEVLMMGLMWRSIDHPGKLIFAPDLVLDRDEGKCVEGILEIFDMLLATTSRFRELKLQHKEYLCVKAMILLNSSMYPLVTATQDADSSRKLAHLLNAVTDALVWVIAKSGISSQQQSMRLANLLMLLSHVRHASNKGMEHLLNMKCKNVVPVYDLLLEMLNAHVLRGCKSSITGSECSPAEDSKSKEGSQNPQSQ

Structure (SMILES) | IC50 ([1]; read-out: IC50) | EC50 [2] | IC50 [3] | EC50 [4] | other results
CCCCC(CCCC)(c1ccc(O)c(CC)c1)c1ccc(O)c(CC)c1 | 4500 nM | Not Active | 2900 nM | Not Active | –
CCC(CC)(c1ccc(O)cc1)c1ccc(O)c(C)c1 | 380 nM | – | 110 nM | Not Active | –
Cc1cc(C(C)(C)c2ccc(O)c(C)c2)ccc1O | – | – | – | – | Activity [5]: 31%
CCC(CC)(c1cc(C)c(O)c(C)c1)c1cc(C)c(O)c(C)c1 | 300 nM | Not Active | 74 nM | Not Active | –
Oc1ccc(Cc2ccc(O)cc2)cc1 | – | – | – | – | inhibition [6]: 24%; inhibition [7]: 35%; EC50 ([2]; read-out: EC50): 1900 nM; EC50 ([4]; read-out: EC50): 910 nM
Oc1ccc(C2(c3ccc(O)cc3)CCCCC2)cc1 | 560 nM | Not Active | 520 nM | Not Active | –
CCCC(CCC)(c1ccc(O)c(CC)c1)c1ccc(O)c(CC)c1 | 2600 nM | Not Active | 490 nM | Not Active | –
CCC(CC)(c1ccc(N)c(C)c1)c1ccc(O)c(C)c1 | 43 nM | Not Active | 98 nM | Not Active | IC50 [8]: 5400 nM
Cc1cc(C2(c3ccc(O)c(C)c3)CCCCC2)ccc1O | 790 nM | Not Active | 230 nM | Not Active | –
CCc1cc(C(CC)(CC)c2ccc(O)c(CC)c2)ccc1O | 1300 nM | Not Active | 230 nM | Not Active | –
CC(C)(c1ccc(O)cc1)c1ccc(O)cc1 [BISPHENOL A] | – | – | – | – | inhibition [6]: 25%; inhibition [7]: 38%; IC50 [8]: 5900 nM; Activity [5]: 33%
CCCC[Si](CCCC)(c1ccc(O)c(C)c1)c1ccc(O)c(C)c1 | – | Not Active | – | Not Active | IC50 [1]: Not Active; IC50 [8]: 8200 nM
CC[Si](CC)(c1ccc(O)c(C)c1)c1ccc(O)c(C)c1 | 800 nM | Not Active | 72 nM | Not Active | IC50 [8]: 1900 nM
CCCC(CCC)(c1ccc(O)c(C)c1)c1ccc(O)c(C)c1 | 140 nM | Not Active | 4.9 nM | Not Active | IC50 [8]: 25000 nM
CCC(CC)(c1ccc(O)cc1)c1ccc(O)cc1 | 93 nM | – | 86 nM | Not Active | –
Oc1ccc(C2(c3ccc(O)cc3)CCCC2)cc1 | 270 nM | Not Active | 170 nM | Not Active | –
Cc1cc(Cc2ccc(O)c(C)c2)ccc1O | – | – | – | – | inhibition [7]: 26%; IC50 [1]: Not Active; EC50 ([2]; read-out: EC50): 5500 nM; Activity [5]: 23%
CCCCC(CCCC)(c1ccc(O)c(CCC)c1)c1ccc(O)c(CCC)c1 | – | Not Active | – | Not Active | –
CCCc1cc(C(CCC)(CCC)c2ccc(O)c(CCC)c2)ccc1O | – | Not Active | – | Not Active | –
CCC(CC)(c1ccc(O)c(C)c1)c1ccc(O)c(C)c1 | 260 nM | – | 25 nM | Not Active | IC50 [8]: 4500 nM
CCCCC(CCCC)(c1ccc(O)c(C)c1)c1ccc(O)c(C)c1 | 150 nM | Not Active | 14 nM | Not Active | –
Cc1cc(C(C)(C)c2ccc(O)cc2)ccc1O | – | – | – | – | inhibition [6]: 26%; inhibition [7]: 48%; Activity [5]: 26%
CCCc1cc(C(CC)(CC)c2ccc(O)c(CCC)c2)ccc1O | – | Not Active | – | Not Active | –
Cc1cc(C2(c3ccc(O)c(C)c3)CCCC2)ccc1O | 770 nM | Not Active | 84 nM | Not Active | –
CCCCC(CCCC)(c1ccc(O)cc1)c1ccc(O)cc1 | 180 nM | Not Active | 79 nM | Not Active | –
CCCC(CCC)(c1ccc(O)cc1)c1ccc(O)cc1 | 2200 nM | – | 99 nM | Not Active | –
